According to patent US20160206631A1, “OXYSTEROLS THAT ACTIVATE LIVER X RECEPTOR SIGNALING AND INHIBIT HEDGEHOG SIGNALING” (THE REGENTS OF THE UNIVERSITY OF CALIFORNIA, priority 2010, published 2016):

Assays:
[1] = tested on: L3.6p1 human pancreatic cancer cells; experiment: Clonogenic growth of L3.6p1 pancreatic cancer cells in methylcellulose; type: cell-based; settings: 72 hours treatment, colonies counted after 10 days
Procedure: (§1) Following treatment cells were harvested by washing cells twice with phosphate buffered saline (PBS) followed by enzymatically detaching with trypsin/EDTA. Cells were collected then washed twice with PBS. Cells were counted then resuspended in 500 uL of media. The volume of cells required for 2,000 cells from the control group was removed from each group then mixed with methylcellulose (1.2%) containing 30% fetal bovine serum, 1% bovine serum albumin, 10^-4 M 2-mercaptoethanol, and 2 mM L-glutamine. Cells were plated in low-attachment 6 well plates (1 ml/well), each group being plated in triplicate. Following 10 days of incubation, tumor cell colonies consisting of >40 cells were counted using an inverted microscope. Results are presented as the percentage of colonies from each treatment group compared to the control group (Table 2).

[2] = tested on: REH human ALL cells; experiment: Clonogenic growth of REH ALL cells; type: cell-based
Procedure: as §1
A similar experiment to that shown above for pancreatic cancer cells was performed using the human ALL cells, REH (Table 3).

[3] = tested on: human primary multiple myeloma cells derived from patients; experiment: Clonogenic growth of primary multiple myeloma cells from patients in methylcellulose; type: cell-based; settings: 1 μM, 96 hours, CD34+ and CD138+ depleted bone marrow mononuclear cells
[4] = tested on: LXR; experiment: LXR target gene expression by Q-RT-PCR in Saos-2 osteosarcoma cells; type: cell-based, human; settings: for expression of LXR target genes ABCA1 and SREBP1c: Saos-2 cells (FIG. 2, 72 hours for TO)
Description: Data from a representative experiment are reported as the Data from a representative experiment are reported as the mean of triplicate determinations±SD relative to the expression level of LXRα (p<0.001 for control vs. both concentrations of TO for ABCA1 and SREBP1c mRNA).
Culturing the cells in varying serum (FBS) concentrations from 1% to 10% had no effect on LXRs or LXR target gene expression levels at baseline.

[5] = tested on: Saos-2 human osteosarcoma cells; experiment: Anchorage-independent clonogenic growth of Saos-2 cells; type: cell-based; settings: for clonogenic growth: Saos-2, 1 μM, 72 hours, colonies after 10 days (FIG. 4)
Procedure: (§2) Next, cells were harvested and examined for clonogenic growth in non-adherent plates after 10 days of culturing. Data from a representative of two separate experiments are reported as the relative number of colonies formed by cells treated with LXR ligands relative to cells treated with control vehicle (% of control).
(§3) We examined whether LXR activation inhibits the clonogenic growth of human osteosarcoma cells using an anchorage-independent cell growth assay. Saos-2 and U2OS cells were seeded in standard tissue culture plates and treated for 72 hours with control vehicle or 1 μM of TO, 22R, or Oxy16. Following treatments with LXR ligands, the drugs were removed and the cells harvested and plated in methylcellulose media in non-adherent plates (Costar) and the cell colonies formed after 10 days were counted.

[6] = tested on: U2OS human osteosarcoma cells; experiment: Anchorage-independent clonogenic growth of U2OS cells; type: cell-based; settings: 1 μM, 72 hours, colonies after 10 days (FIG. 4)
Procedure: as §2, §3

[7] = tested on: human NCI-H929 multiple myeloma cell line; experiment: Clonogenic growth of NCI-H929 multiple myeloma cells; type: cell-based; settings: 1 μM, 96 hours, colonies after 10 days (FIG. 6)
Procedure: NCI-11929 multiple myeloma cells were treated for 96 hours with control vehicle or 1 μM of each compound as shown. Next, drugs were removed and cells were plated in methylcellulose. Clonogenic growth of colonies determined after 10 days. Data are reported as percentage of colony number normalized to control group.
In order to examine the effect of LXR activation on the clonogenic growth of multiple myeloma cells, the human NCI-H929 multiple myeloma cell line was used.

[8] = tested on: NCI-H929 multiple myeloma cancer stem cells; experiment: Percentage of cancer stem cells (CD138 negative, ALDH positive) in NCI-H929 cultures by flow cytometry; type: cell-based, human; settings: 1 μM, 96 hours (FIGS. 7, 8)
Procedure: NCI-H929 multiple myeloma cells were treated for 96 hours with control vehicle or 1 μM of each compound as shown. Next, percentage of CD138negative cells in the same number of starting cells from each group was determined by flow cytometry.
NCI-H929 multiple myeloma cells were treated for 96 hours with control vehicle or 1 μM of each compound as shown. Next, percentage of ALDH+ cells in the same number of starting cells from each group was determined by flow cytometry.

[9] = tested on: Hedgehog signaling; experiment: CAPAN-1 conditioned-medium-induced Hh target gene expression (Ptch1, HHIP, Gli1) in C3H10T1/2 cells; type: cell-based; settings: C3H10T1/2, 48 hours; TO 2 μM, Oxy16 5 μM, Cyc 4 μM (FIG. 10)
Procedure: Next, cells were treated with DMEM containing 5% […] or CAPAN-1 CM in the presence or absence of TO, Oxy16, or Cyc. After 48 hours, RNA was extracted and analyzed by Q-RT-PCR for the expression of Hh target genes Ptch1, HHIP, and Gli1 and normalized to GAPDH expression.
As noted above, Hh signaling appears to play an important role in the initiation and progression of pancreatic cancer (26), and the inhibition of HE signaling using small molecule antagonists inhibits pancreatic cancer cells from growing in vitro and in vivo (50). […] Subsequently, Hh signaling in stromal cells provides a permissive milieu for tumor cells to grow. […] In this Example, we examine this possibility using an in vitro model system in which Hh signaling is induced in C3H10T1/2 embryonic fibroblasts by conditioned-medium (CM) from CAPAN-1 human pancreatic cancer cells.
(§4) In order to assess the functional activity of Hh proteins produced by CAPAN-1 cells, we examined the ability of CM to induce Hh target gene expression in C3H10T1/2 embryonic fibroblasts.

[10] = tested on: C3H10T1/2 embryonic fibroblasts; experiment: CAPAN-1 conditioned-medium-induced alkaline phosphatase activity in C3H10T1/2 cells; type: cell-based; settings: C3H10T1/2, 3 days; TO 2 μM, Oxy16 5 μM, Cyc 4 μM (FIG. 11)
Procedure: Next, cells were treated with DMEM containing 5% FBS or CAPAN-1 CM in the presence or absence of TO, Oxy16, or Cyc. After 3 days, alkaline phosphatase activity assay using whole cell lysates was performed.
as §4

[11] = tested on: LXR; experiment: LXR target gene expression in C3H10T1/2 cells; settings: C3H10T1/2, 48 hours
Description: Next we examined whether LXR activation by LXR agonists inhibits CAPAN-1 CM-induced Hh target gene expression in fibroblastic cells.
As noted above, specific oxysterols are thought to be physiological ligands of LXRs that are classified as partial agonists based on their differential effects on the interaction of LXRs with co-activators and co-repressors compared to those induced by the full LXR agonist TO.

[12] = tested on: LXR; experiment: ABCA1 (LXR target gene) expression by Q-RT-PCR in M2-10B4 bone marrow stromal cells
Procedure: This was measured by the ability of these molecules to induce the expression of LXR-target genes, including ABCA1, in M2-10B4 bone marrow stromal cells (MSC) after 48 hours of treatment (Table 1).

[13] = tested on: Hedgehog signaling pathway; experiment: Ptch1 mRNA expression (Hh target gene) by Q-RT-PCR in Saos-2 cells; type: cell-based, human; settings: Saos-2, 2% FBS, 72 hours; 2 or 4 τM TO, 4 μM cyclopamine (FIG. 5)
Procedure: Saos-2 cells were cultured in medium containing 2% FBS and were treated at confluence with 4 μM Cyc, 2 or 4 τM TO, alone or in combination for 72 hours. Expression of Ptch1 and Gli1 (data not shown) mRNA was measured by Q-RT-PCR and normalized to GAPDH.

[14] = tested on: CAPAN-1 human pancreatic cancer cells; experiment: Ihh and Shh mRNA expression in CAPAN-1 cells; type: cell-based; settings: cyclopamine 4 μM, TO 2-5 μM, data not shown
Procedure: Expression of Shh and Ihh mRNA in human cultures of pancreatic cancer cells, CAPAN-1, L3.6p1, and E3LZ10.7 were analyzed by Q-RT-PCR and normalized to GAPDH expression. Cells were cultured in DMEM containing 10% FBS and RNA was extracted 3 days after seeding. Data from a representative experiment are reported as the mean of triplicate determinations±SD (p<0.001 for CAPAN-1 vs. other two cell types for Shh and 11 h mRNA expression).
Culturing CAPAN-1 cells in 1% vs. 10% FBS had no effects on their level of mRNA expression for 11th and Shh (data not shown), and treatment of CAPAN-1 cells with the Hh pathway inhibitor cyclopamine (4 μM) or the LXR agonist TO (2-5 μM) had no effect on the expression of Ihh or Shh mRNA in these cells (data not shown).

[15] = tested on: Hedgehog pathway; settings: cited from earlier work
[16] = tested on: human pancreatic cancer cells; experiment: Clonogenic growth of human pancreatic cancer cells in vitro; type: cell-based
[17] = tested on: LXR; experiment: LXR target gene expression in human pancreatic cancer cells

SMILES | Normalized Colony # (% of control) ([1]; 5 μM) | Raw Colony # ([1]; 5 μM) | Normalized Colony # (% of control) ([1]; 10 μM) | Raw Colony # ([1]; 10 μM) | Normalized Colony # (% of control) ([2]; 0.1 μM) | Raw Colony # ([2]; 0.1 μM) | Normalized Colony # (% of control) ([2]; 0.5 μM) | Raw Colony # ([2]; 0.5 μM) | colony formation (% of control) ([3]; Specimen # 1) | colony formation (% of control) ([3]; Specimen # 2) | expression of LXR target genes ABCA1 and SREBP1c [4] | clonogenic growth [5] | clonogenic growth [6] | clonogenic growth [7] | percentage of cancer stem cells (CD138 negative and ALDH positive cells) [8] | CAPAN-1 CM-induced expression of Hh target genes Ptch1, Gli1, HHIP [9] | CAPAN-1 CM-induced ALP activity [10] | Ptch1 mRNA expression [13] | expression of Ihh or Shh mRNA [14] | net effect of the LXR agonist on the Hedgehog pathway [15] | further results
CC(C)CC[C@@H](O)[C@](C)(O)[C@H]1CC[C@H]2[C@@H]3CC=C4C[C@@H](O)CC[C@]4(C)[C@H]3CC[C@]12C [Oxy16, (2R,3R)-2-((3S,8S,9S,10R,13S,14S,17S)-3-Hydroxy-10,13-dimethyl-2,3,4,7,8,9,10,11, 12,13,14,15,16,17-tetradecahydro-1H-cyclopenta[a]phenanthren-17-yl)-6-methyl-heptane-2,3-diol] | 22 % of control | 53 | 10 % of control | 24 | 71 % of control | 65 | 15 % of control | 14 | 13 % of control | 20 % of control | significant expression | significant inhibition | significant inhibition | inhibited clonogenic growth | significantly reduced | inhibited | inhibited |  |  |  | induction of LXR target genes ABCA1 and ABCG1 ([4]; osteosarcoma cells, preliminary studies (FIG. 3)): strong induction; potency in blocking clonogenic growth of osteosarcoma cells versus naturally occurring counterparts ([5]; osteosarcoma cells, compared with 22R and 20S): more potent than its naturally occurring counterparts; induction of ABCA1 and ABCG1 [11]: induction; fold induction at 2 µM ([12]; M210B4, 48 h, read-out: ABCA1 gene expression, Fold Induction ± SD): 2.1 ± 0.5; LXR signaling activation ([12]; bone marrow stromal cells): Activate LXR Signaling
CC1=C2C[C@H]3[C@@H](CC=C4C[C@@H](O)CC[C@@]43C)[C@@H]2CC[C@]12O[C@@H]1C[C@H](C)CN[C@H]1[C@H]2C [cyclopamine] |  |  |  |  |  |  |  |  |  |  |  |  |  |  |  | completely inhibited | inhibited | significant inhibition | no effect |  | 
C=C(C)CCC[C@](C)(O)C1CCC2C3CC=C4C[C@@H](O)CC[C@]4(C)C3CC[C@@]21C (stereo partly shown) [Oxy 13] |  |  |  |  |  |  |  |  |  |  |  |  |  |  |  |  |  |  |  | leave the Hedgehog pathway active | 
C[C@H](CCCC(C)(C)O)[C@H]1CC[C@H]2[C@@H]3CC=C4C[C@@H](O)CC[C@]4(C)[C@H]3CC[C@]12C [25-hydroxycholesterol] |  |  |  |  |  |  |  |  |  |  |  |  |  |  |  |  |  |  |  | leave the Hedgehog pathway active | 
O=S(=O)(c1ccccc1)N(CC(F)(F)F)c1ccc(C(O)(C(F)(F)F)C(F)(F)F)cc1 [TO, TO901317, reference compound] | 41 % of control | 100 | 15 % of control | 37 | 48 % of control | 44 | 37 % of control | 34 | 27 % of control | 18 % of control | robust expression | significant inhibition | significant inhibition | inhibited clonogenic growth | significantly reduced | significantly inhibited | significantly inhibited | significant inhibition | no effect |  | clonogenic growth [16]: significantly inhibit; expression of LXR target genes [17]: induce the expression of LXR target genes
